In patent US11987578B1, “7-(4-((5-(2-chlorobenzylideneamino)-2-thioxo-1,3,4-thiadiazol-3(2H)-yl)methyl)piperazin-1-yl)-1-cyclopropyl-6-fluoro-4-oxo-1,4-dihydroquinoline-3-carboxylic acid as an anti-inflammatory compound” (KING FAISAL UNIVERSITY, priority 2023, dated 2024):
Where two headings read alike, the source gives them in different places.

Tests used:
Bovine Serum Albumin = Bovine Serum Albumin (Bos taurus, UniProt P02769); experiment: Bovine Serum Albumin Assay (BSA), inhibition of heat-induced protein denaturation; assay type: biochemical
Description: Bovine Serum Albumin Assay (BSA) In vitro-inflammatory activities of the tested samples were determined using a modified method of the BSA assay reported by Williams et al. BSA solution (0.4%, w/v) was prepared in Tris Buffered Saline. The pH was adjusted to 6.4 with glacial acetic acid. Different dilutions of 20, 40, 60, 80, and 100 μg/mL of 7-(4-((5-(2-chlorobenzylideneamino)-2-thioxo-1,3,4-thiadiazol-3(2H)-yl)methyl)piperazin-1-yl)-1-cyclopropyl-6-fluoro-4-oxo-1,4-dihydroquinoline-3-carboxylic acid stock solutions were added to test tubes containing 1 mL of 0.4%, w/v BSA buffer solution. Both negative (solvent) and positive (aspirin) controls were assayed in a similar manner. The solutions were then heated in a water bath at 72° C. for 10 minutes and cooled for 20 minutes under laboratory conditions. The turbidity of the solutions (level of protein precipitation) was measured at 660 nm in Spectrophotometer (V-770 UV-Visible/NIR Spectrophotometer). The percentage inhibition of precipitation (protein denaturation) was determined relative to the negative control using the following equation: [formula]

Sequence of Bovine Serum Albumin (P02769 25-607): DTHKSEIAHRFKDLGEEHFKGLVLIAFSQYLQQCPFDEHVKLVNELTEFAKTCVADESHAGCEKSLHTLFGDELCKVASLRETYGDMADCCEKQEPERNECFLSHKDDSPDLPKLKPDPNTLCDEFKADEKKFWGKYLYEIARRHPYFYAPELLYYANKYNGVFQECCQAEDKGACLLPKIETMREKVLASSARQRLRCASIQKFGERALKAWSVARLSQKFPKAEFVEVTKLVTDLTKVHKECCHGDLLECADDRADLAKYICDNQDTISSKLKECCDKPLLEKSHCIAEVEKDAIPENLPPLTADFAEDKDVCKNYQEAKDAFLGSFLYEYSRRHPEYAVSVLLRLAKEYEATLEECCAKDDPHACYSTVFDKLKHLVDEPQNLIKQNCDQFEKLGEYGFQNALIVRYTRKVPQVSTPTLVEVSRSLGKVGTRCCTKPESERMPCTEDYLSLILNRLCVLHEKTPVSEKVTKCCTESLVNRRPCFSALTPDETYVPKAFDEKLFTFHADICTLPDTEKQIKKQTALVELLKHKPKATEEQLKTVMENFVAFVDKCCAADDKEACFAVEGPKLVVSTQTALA

SMILES	melting point [°C]	in vitro anti-inflammatory activity (Bovine Serum Albumin; BSA assay, result in words)	inhibition at 100 µg/mL (Bovine Serum Albumin; pH 6.4, read-out: percentage inhibition of precipitation (protein denaturation)) [%]	inhibition at 100 µg/mL (Bovine Serum Albumin; 100 μg/ml, 0.4% w/v BSA, pH 6.4, 72° C. for 10 minutes, turbidity at 660 nm, relative to negative control, read-out: percentage inhibition of precipitation (protein denaturation)) [%]
O=C(O)c1cn(C2CC2)c2cc(N3CCN(Cn4nc(/N=C/c5ccccc5Cl)sc4=S)CC3)c(F)cc2c1=O [7-(4-((5-(2-chlorobenzylideneamino)-2-thioxo-1,3,4-thiadiazol-3(2H)-yl)methyl)piperazin-1-yl)-1-cyclopropyl-6-fluoro-4-oxo-1,4-dihydroquinoline-3-carboxylic acid]	207 to 209	considerable anti-inflammatory effect	90.2	
CC(=O)Oc1ccccc1C(=O)O [aspirin, reference compound]				96.8
